Measured values: the supplement of paper PMC11061612

Columns and labels:
Test in all cases: combination Emax (second highest fraction inhibited in the dose matrix, 72 h); higher = more inhibition; extreme values may be limits of the assay
SK-N-AS (Neuroblastoma) = system: SK-N-AS (Neuroblastoma)
Method in brief: (§1)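 Bliss excess equals the observed combination effect minus the expected value EA + EB − EA·EB, where EA and EB are the effects of each agent alone. Combination Emax is the second-highest inhibition within the matrix. Inhibition was scaled from CellTiter-Glo 2.0 luminescence, with 0 set by vehicle wells and 1 by blank wells, after 72 hours of two-drug dosing of cells plated in 1536-well plates.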

[1] = system: Mo-T (Other Blood Carcinomas)
Method in brief: as §1

[2] = system: ML-2 (Acute Myeloid Leukemia)
Method in brief: as §1

[3] = system: DU-145 (Prostate Carcinoma)
Method in brief: as §1

[4] = system: MV-4-11 (Acute Myeloid Leukemia)
Method in brief: as §1

[5] = system: SW982 (Other Solid Carcinomas)
Method in brief: as §1

[6] = system: MOG-G-UVW (Low Grade Glioma)
Method in brief: as §1

[7] = system: CADO-ES1 (Ewing's Sarcoma)
Method in brief: as §1

[8] = system: LC-1-sq (Squamous Cell Lung Carcinoma)
Method in brief: as §1

[9] = system: SKN (Other Solid Carcinomas)
Method in brief: as §1

[10] = system: KGN (Other Solid Carcinomas)
Method in brief: as §1

[11] = system: KMRC-1 (Kidney Carcinoma)
Method in brief: as §1

COLO-679 (Melanoma) = system: COLO-679 (Melanoma)
Method in brief: as §1

[12] = system: MOLT-4 (T-Lymphoblastic Leukemia)
Method in brief: as §1

Hey (Ovarian Carcinoma) = system: Hey (Ovarian Carcinoma)
Method in brief: as §1

[13] = system: EFO-21 (Ovarian Carcinoma)
Method in brief: as §1

[14] = system: HCC2998 (Colorectal Carcinoma)
Method in brief: as §1

[15] = system: ME-180 (Cervical Carcinoma)
Method in brief: as §1

[16] = system: NCI-H522 (Lung Adenocarcinoma)
Method in brief: as §1

[17] = system: NCI-H1838 (Lung Adenocarcinoma)
Method in brief: as §1

Compound	combination Emax (SK-N-AS (Neuroblastoma))	combination Emax [1]	combination Emax [2]	combination Emax [3]	combination Emax [4]	combination Emax [5]	combination Emax [6]	combination Emax [7]	combination Emax [8]	combination Emax [9]	combination Emax [10]	combination Emax [11]	combination Emax (COLO-679 (Melanoma))	combination Emax [12]	combination Emax (Hey (Ovarian Carcinoma))	combination Emax [13]	combination Emax [14]	combination Emax [15]	combination Emax [16]	combination Emax [17]
Cc1c2c(nn1C)CSCc1cc(n(C)n1)CSc1cc(c3ccccc3c1)OCCCc1c(C(=O)O)n(C)c3c-2c(Cl)ccc13 [AZD5991] + C=CCn1c(=O)c2cnc(Nc3ccc(N4CCN(C)CC4)cc3)nc2n1-c1cccc(C(C)(C)O)n1 [AZD1775] (first compound max 1 µM, partner max 1 µM)	0.964	0.562	1	0.373	1	0.798	0.761	0.925	0.851	0.436	0.725	0.275	0.529	1	0.59	0.552	0.962	0.52	0.516	0.835
Cc1c2c(nn1C)CSCc1cc(n(C)n1)CSc1cc(c3ccccc3c1)OCCCc1c(C(=O)O)n(C)c3c-2c(Cl)ccc13 [AZD5991] + CC1(C)CCC(CN2CCN(c3ccc(C(=O)NS(=O)(=O)c4ccc(NCC5CCOCC5)c([N+](=O)[O-])c4)c(Oc4cnc5[nH]ccc5c4)c3)CC2)=C(c2ccc(Cl)cc2)C1 [Venetoclax] (first compound max 1 µM, 7x7, partner max 1 µM)	0.871	0.196	1	0.149	1	0.192	0.257	0.911	0.322	0.177	0.263	0.289	0.388	0.857	0.133	0.207	0.893	0.286	0.443	0.306
Cc1c2c(nn1C)CSCc1cc(n(C)n1)CSc1cc(c3ccccc3c1)OCCCc1c(C(=O)O)n(C)c3c-2c(Cl)ccc13 [AZD5991] + CCN(CCO)CCCOc1ccc2c(Nc3cc(CC(=O)Nc4cccc(F)c4)[nH]n3)ncnc2c1 [AZD2811] (first compound max 1 µM, 7x7, partner max 1 µM)	0.808	0.189	1	0.23	1	0.688	0.696	0.908	0.428	0.204	0.574	0.194	0.42	0.941	0.331	0.343	0.94	0.343	0.657	0.447
Cc1c2c(nn1C)CSCc1cc(n(C)n1)CSc1cc(c3ccccc3c1)OCCCc1c(C(=O)O)n(C)c3c-2c(Cl)ccc13 [AZD5991] + CN(C)CCCOc1ccc(-c2ccc3ncc4c(c3c2)n(C2CCOCC2)c(=O)n4C)cn1 [AZD0156] (first compound max 1 µM, 7x7, partner max 1 µM)	0.614	0.229	1	0.192	1	0.258	0.247	0.946	0.258	0.278	0.425	0.197	0.243	0.304	0.254	0.247	0.952	0.278	0.387	0.464
Cc1c2c(nn1C)CSCc1cc(n(C)n1)CSc1cc(c3ccccc3c1)OCCCc1c(C(=O)O)n(C)c3c-2c(Cl)ccc13 [AZD5991] + C[C@@H]1COCCN1C2=NC(=NC(=C2)C3(CC3)[S@](=N)(=O)C)C4=C5C=CNC5=NC=C4 [AZD6738] (first compound max 1 µM, 7x7, partner max 10 µM)	0.966	0.483	1	0.621	1	0.748	0.756	0.989	0.845	0.42	0.772	0.549	0.674	1	0.806	0.484	0.994	0.485	0.417	0.72
Cc1c2c(nn1C)CSCc1cc(n(C)n1)CSc1cc(c3ccccc3c1)OCCCc1c(C(=O)O)n(C)c3c-2c(Cl)ccc13 [AZD5991] + C[C@@H](Nc1cc(F)cc(F)c1)c1cc(C(=O)N(C)C)cc2c(=O)cc(N3CCOCC3)oc12 [AZD8186] (first compound max 1 µM, 7x7, partner max 3 µM)	0.643	0.319	1	0.179	1	0.443	0.512	0.918	0.24	0.532	0.443	0.639	0.332	0.526	0.258	0.337	0.918	0.217	0.452	0.472
Cc1c2c(nn1C)CSCc1cc(n(C)n1)CSc1cc(c3ccccc3c1)OCCCc1c(C(=O)O)n(C)c3c-2c(Cl)ccc13 [AZD5991] + Cc1cc2ncnn2cc1Nc1ncc2c(n1)n(C1CCOCC1)c(=O)n2C [AZD7648] (first compound max 1 µM, 7x7, partner max 10 µM)	0.59	0.262	1	0.23	1	0.371	0.271	0.893	0.269	0.305	0.563	0.203	0.259	0.429	0.316	0.32	0.899	0.338	0.362	0.259
C[C@@H]1COCCN1c1cc(C2([S@](C)(=N)=O)CC2)nc(-c2ccnc3[nH]ccc23)n1 [AZD6738] + O=C(c1cc(Cc2n[nH]c(=O)c3ccccc23)ccc1F)N1CCN(C(=O)C2CC2)CC1 [Olaparib] (first compound max 10 µM, 7x7, partner max 10 µM)	0.687	0.552	0.955	0.548	0.985	0.781	0.847	0.915	0.839	0.417	0.828	0.566	0.661	1	0.699	0.412	0.811	0.425	0.23	0.542
NC1(C(=O)N[C@@H](CCO)c2ccc(Cl)cc2)CCN(c2ncnc3[nH]ccc23)CC1 [Capivasertib] + CC(=O)c1c(C)c2cnc(Nc3ccc(N4CCNCC4)cn3)nc2n(C2CCCC2)c1=O [Palbociclib] (first compound max 10 µM, 7x7, partner max 10 µM)	0.351	0.4	0.593	0.166	0.861	0.607	0.727	0.274	0.206	0.639	0.724	0.457	0.324	0.736	0.578	0.101	0.591	0.629	0.172	0.432
NC1(C(=O)N[C@@H](CCO)c2ccc(Cl)cc2)CCN(c2ncnc3[nH]ccc23)CC1 [Capivasertib] + CC(C)n1c(=O)n(C)c2cnc3cc(F)c(-c4ccc(OCCCN5CCCCC5)nc4)cc3c21 [AZD1390] (first compound max 10 µM, 7x7, partner max 0.3 µM)	0.157	0.239	0.71	0.249	0.722	0.435	0.576	0.0981	0.253	0.516	0.414	0.435	0.225	0.682	0.225	0.217	0.398	0.636	0.192	0.206
NC1(C(=O)N[C@@H](CCO)c2ccc(Cl)cc2)CCN(c2ncnc3[nH]ccc23)CC1 [Capivasertib] + CCN(CCO)CCCOc1ccc2c(Nc3cc(CC(=O)Nc4cccc(F)c4)[nH]n3)ncnc2c1 [AZD2811] (first compound max 10 µM, 7x7, partner max 1 µM)	0.329	0.321	1	0.219	0.954	0.672	0.733	0.243	0.322	0.555	0.688	0.494	0.31	0.997	0.471	0.235	0.5	0.7	0.226	0.386
NC1(C(=O)N[C@@H](CCO)c2ccc(Cl)cc2)CCN(c2ncnc3[nH]ccc23)CC1 [Capivasertib] + COc1nnc2ccc(N3CCC(c4ccc(OCCN5CCN(C)C(=O)[C@H]5C)cc4)CC3)nn12 [AZD5153] (first compound max 10 µM, 7x7, partner max 1 µM)	0.445	0.649	0.997	0.251	1	0.848	0.835	0.356	0.815	0.725	0.709	0.557	0.578	1	0.556	0.321	0.872	0.693	0.381	0.264
NC1(C(=O)N[C@@H](CCO)c2ccc(Cl)cc2)CCN(c2ncnc3[nH]ccc23)CC1 [Capivasertib] + C[C@@H]1COCCN1C2=NC(=NC(=C2)C3(CC3)[S@](=N)(=O)C)C4=C5C=CNC5=NC=C4 [AZD6738] (first compound max 10 µM, 7x7, partner max 10 µM)	0.738	0.417	0.928	0.398	0.975	0.727	0.796	0.729	0.74	0.608	0.9	0.579	0.634	1	0.777	0.415	0.814	0.755	0.251	0.494
